Reference: PMC10620772, “Design, synthesis, and biological evaluation of new pyrimidine-5-carbonitrile derivatives as novel anti-cancer, dual EGFR^WT/COX-2 inhibitors with docking studies” (RSC Advances, 2023)

How the values were obtained:
Colo-205 cells = assay: Annexin V-FITC apoptosis assay; format: cell-based, human; conditions: treated at IC50
Description: The Annexin V-FITC/propidium iodide dual staining assay was used to assess the effect of compound (4e and 4f) on inducing apoptosis in Colo-205 cells. This assay allows for the identification of early stages of apoptosis before the loss of cell membrane integrity, allowing measurements of apoptotic death kinetics in relation to the cell cycle.
(§1) Cell Culture Unit, VACSERA, Cairo, Egypt, conducted an apoptosis investigation.
Centrifuge to collect cells, using binding buffer to resuspend cells. Pipette 5 μl of Annexine-V and 5 μl. Subsequently, incubate sample for 5 min. In R.T, dark condition. Detect Annexine V-FITC binding cells detected by FACSCaliber flow cytometer (Ex = 488 nm; Em = 530 nm) which indicate apoptotic cells. On the other side the PI stained cells detected by FL2 flow cytometer, which detect necrotic cells.[53,54]

prostate cancer subpanel = assay: NCI60 five-dose, subpanel VIII; format: cell-based, human; conditions: for GI50: Homo sapiens, read-out: MG-MID (GI50); for GI50 / MG-MID (TGI): subpanel VIII; for Selectivity index (GI50) / Selectivity index (TGI): full panel MG-MID / subpanel VIII
Description: (§2) (2) The molar concentration of the compound responsible for total growth inhibition, also known as total growth inhibition (TGI).
(§3) Regarding subpanel selectivity toward certain cancer type, the method of determining a compound's selectivity index is to divide the full panel MG-MID (μM) value by each single subpanel. Values above six indicate high selectivity against the subpanel; moderate selectivity is denoted by values between three and six. Conversely, compounds are termed nonselective if their selectivity is less than three.[30,37]

COX-2 = target: T1, COX-2 (Homo sapiens, UniProt P35354); assay: COX-2 inhibitor screening kit (Biovision); format: biochemical; conditions: for IC50: means ± SD of three experiments, read-out: COX2 IC50
T1 construct: purchased Biovision K547
T1 sequence (P35354 18-604): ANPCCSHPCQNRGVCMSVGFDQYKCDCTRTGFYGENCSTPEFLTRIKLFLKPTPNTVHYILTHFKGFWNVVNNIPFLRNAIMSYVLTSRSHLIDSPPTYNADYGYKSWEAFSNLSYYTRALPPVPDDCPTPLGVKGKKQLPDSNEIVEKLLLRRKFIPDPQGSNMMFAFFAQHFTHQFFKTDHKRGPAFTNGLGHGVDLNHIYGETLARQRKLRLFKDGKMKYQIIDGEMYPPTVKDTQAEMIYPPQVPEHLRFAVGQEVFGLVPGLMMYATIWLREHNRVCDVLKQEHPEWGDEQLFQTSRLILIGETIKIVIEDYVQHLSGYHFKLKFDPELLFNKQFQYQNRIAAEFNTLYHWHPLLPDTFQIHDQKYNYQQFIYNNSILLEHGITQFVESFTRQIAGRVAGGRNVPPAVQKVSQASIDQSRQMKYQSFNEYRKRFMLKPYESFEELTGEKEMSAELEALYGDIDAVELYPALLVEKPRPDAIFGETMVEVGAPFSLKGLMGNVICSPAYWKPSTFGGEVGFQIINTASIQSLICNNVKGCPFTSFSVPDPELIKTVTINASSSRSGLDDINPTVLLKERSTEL
Description: The inhibitory activity of novel 4e & 4f against COX-1/COX-2 was evaluated by using Biovision COX-1/COX-2 Inhibitor Screening Kit (Catalog #: K548) and (Catalog #: K547), respectively.

colon cancer subpanel = assay: NCI60 five-dose, subpanel III; format: cell-based, human; conditions: for GI50: Homo sapiens, read-out: MG-MID (GI50); for GI50 / MG-MID (TGI): subpanel III; for Selectivity index (GI50) / Selectivity index (TGI): full panel MG-MID / subpanel III
Description: as §2, §3

in vitro = conditions: human
Description: (§4) Further perspectives of their mechanisms of action were carried.
(§5) The preliminary in vitro antitumor investigation of our novel potential anticancer candidates was carried out by NCI, MD, USA (www.dtp.nci.nih.gov). […] Moreover, the safety profile of 4e & 4f at normal cells were evaluated.

[1] = test system: FHC (epithelial colon cell line); assay: in vitro; conditions: human
Description: as §4, §5

renal cancer subpanel = assay: NCI60 five-dose, subpanel VII; format: cell-based, human; conditions: for GI50: Homo sapiens, read-out: MG-MID (GI50); for GI50 / MG-MID (TGI): subpanel VII; for Selectivity index (GI50) / Selectivity index (TGI): full panel MG-MID / subpanel VII
Description: as §2, §3

Colo 205 cells = assay: Cell cycle analysis by flow cytometry; format: cell-based, human; conditions: treated at IC50; for % G0–G1 / % G2/M / % S: DNA content
Description: Inhibition of the EGFR^WT/COX-2 pathway has been linked to alterations in cell survival and proliferation, as reported.[22,40]
as §1
Results reported as DNA% of each cell cycle phase: (S, G1, G2, M). The following reported procedure was followed; (1) applying compounds 4e and 4f on Colo 205 cell line separately, then the Colo 205 was cultured. (2) The cells were collected in PBS diluted by nanopure water as a single cell suspension (by adding trypsine to dissociate cells). (3) Centrifuge cells by 500×g for 5 min, decant the supernatant. (4) Using PBS wash the cells, gently tapping the tube to resuspend cells. (5) In ice bath fix the cells in 66% cooled ethanol, stored in +4 °C 2 h at least (6) put the sample on bench at room temperature, inverted tube gently to resuspend cells. (7) Centrifuge, discard supernatant, wash and resuspend cells once more time. (8) Gently adding PI solution with RNAase (preventing RNA staining and interfering results), (9) Incubate samples in R.T, dark conditions for 20 min (10) transfer samples into ice, dark conditions. (11) Genteelly tapping to resuspend cells which settled during incubation step. (12) Put sample into flow cytometer and run it. Detect the fluorescence of protium iodide in FL2.[41,42] Additional assessment of the pro-apoptotic effect was performed by using Annexin V-FITC and propidium iodide.

ovarian cancer subpanel = assay: NCI60 five-dose, subpanel VI; format: cell-based, human; conditions: for GI50: Homo sapiens, read-out: MG-MID (GI50); for GI50 / MG-MID (TGI): subpanel VI; for Selectivity index (GI50) / Selectivity index (TGI): full panel MG-MID / subpanel VI
Description: as §2, §3

Row | SMILES | Apoptosis early (Colo-205 cells) | Apoptosis late (Colo-205 cells) | Apoptosis total (Colo-205 cells) | Necrosis (Colo-205 cells) | GI50 (prostate cancer subpanel) | Selectivity index (GI50) (prostate cancer subpanel) | Selectivity index (TGI) (prostate cancer subpanel) | MG-MID (TGI) (prostate cancer subpanel) | SI (COX-2 over COX-1) (COX-2) | IC50 (COX-2) | GI50 (colon cancer subpanel) | Selectivity index (GI50) (colon cancer subpanel) | Selectivity index (TGI) (colon cancer subpanel) | MG-MID (TGI) (colon cancer subpanel) | IC50 (in vitro) | selectivity ratio (in vitro) | IC50 FHC [1] | GI50 (renal cancer subpanel) | Selectivity index (GI50) (renal cancer subpanel) | Selectivity index (TGI) (renal cancer subpanel) | further results
1 | N#Cc1c(-c2ccc(F)cc2)nc(SCc2ccccc2)nc1N1CCNCC1 [4e, 2-(Benzylthio)-4-(4-fluorophenyl)-6-(piperazin-1-yl) pyrimidine-5-carbonitrile] | 19.91% | 25.22% | 51.07% | 5.94% | 13.4 µM | 0.79 | 0.86 | 27.40 µM | 8.55 | 1.28 µM | 5.1 µM | 2.09 | 1.79 | 13.12 µM | 28.2 µM | 17 | 46.34 µM | 12.2 µM | 0.87 | 0.92 | MG-MID (TGI) (renal cancer subpanel): 25.75 µM; % G0–G1 (Colo 205 cells): 61.31%; % G2/M (Colo 205 cells): 2.87%; % S (Colo 205 cells): 35.82%; Cell cycle comment (Colo 205 cells): Cell growth arrest@ G1; Increase of cells at G0–G1 phase vs control (Colo 205 cells): ~1.2 fold; GI50 (ovarian cancer subpanel): 13.2 µM; Selectivity index (GI50) (ovarian cancer subpanel): 0.81; Selectivity index (TGI) (ovarian cancer subpanel): 0.83; MG-MID (TGI) (ovarian cancer subpanel): 28.35 µM
2 | N#Cc1c(-c2ccc(F)cc2)nc(SCc2ccc(F)cc2)nc1N1CCNCC1 [4f, 2-((4-Fluorobenzyl)thio)-4-(4-fluorophenyl)-6-(piperazin-1-yl) pyrimidine-5-carbonitrile] | 26.15% | 12.71% | 43.12% | 4.26% | 14.7 µM | 0.91 | 0.89 | 29.50 µM | 6.01 | 5.26 µM | 7 µM | 1.92 | 1.54 | 17.15 µM | 46.3 µM | 25.3 | 28.25 µM | 23.2 µM | 0.57 | 0.94 | MG-MID (TGI) (renal cancer subpanel): 28.11 µM; % G0–G1 (Colo 205 cells): 55.01%; % G2/M (Colo 205 cells): 5.39%; % S (Colo 205 cells): 39.6%; Cell cycle comment (Colo 205 cells): Cell growth arrest@ G1; Increase of cells at G0–G1 phase vs control (Colo 205 cells): ~1.1 fold; GI50 (ovarian cancer subpanel): 15 µM; Selectivity index (GI50) (ovarian cancer subpanel): 0.89; Selectivity index (TGI) (ovarian cancer subpanel): 0.86; MG-MID (TGI) (ovarian cancer subpanel): 30.41 µM
